Activity calls are given as the source filed them. The rule behind the calls is not given here.

In one series the test system is MV4-11. Description: Cytotoxicity in human MV4-11 cells assessed as reduction in cell viability incubated for 12 days with fresh compound replacement for every 4 days by MTT assay. It is filed as functional. On the technique in general: Tetrazolium assays rely on reduction of a dye to a coloured formazan, in cell work by metabolically active cells.
The subject of a further series is RS4-11. The experiment in a line: Cytotoxicity in human RS4:11 cells assessed as reduction in cell viability incubated for 12 days with fresh compound replacement for every 4 days by MTT assay. It is filed as functional.
The subject of another series is MOLM-13. Description: Cytotoxicity in human MOLM13 cells assessed as reduction in cell viability incubated for 12 days with fresh compound replacement for every 4 days by MTT assay. It is filed as functional.
Series [1] addresses Histone-lysine N-methyltransferase ASH1L (Homo sapiens, UniProt Q9NR48). Description: Inhibition of MOCR-fused ASH1L SET-BAH ( 2069 to 2833 amino acids) (unknown origin) expressed as in Escherichia coli BL21 (DE3) T1R cells using SAM and chicken mono/dinucleosomes incubated for 1 hr by scintillation counting assay.
The test system of the next series is SEM cells. The experiment in a line: Cytotoxicity in human SEM cells assessed as reduction in cell viability incubated for 12 days with fresh compound replacement for every 4 days by MTT assay. It is filed as functional.
Series [2] has as its target Histone-lysine N-methyltransferase ASH1L (Mus musculus) (UniProt Q99MY8). Description: Inhibition of ASH1L in MLL-AF9 transformed mouse MA9 cells assessed as downregulation of Meis1 gene expression at 1.5 to 6 uM by quantitative RT-PCR analysis.
Series [3] shares this target. Description: Inhibition of ASH1L in MLL-AF9 transformed mouse MA9 cells assessed as downregulation of HOX10 gene expression at 1.5 to 6 uM by quantitative RT-PCR analysis.
For series [4] the target is unchanged. The experiment in a line: Inhibition of ASH1L in MLL-AF9 transformed mouse MA9 cells assessed as downregulation of HOX9 gene expression at 1.5 to 6 uM by quantitative RT-PCR analysis.
Series [5] shares this target. Description: Inhibition of ASH1L in MLL-AF9 transformed mouse MA9 cells assessed as downregulation of HOX9 gene expression at 6 to 12 uM by quantitative RT-PCR analysis.
A further series is filed under the species Mus musculus. Description: Induction of cell differentiation in MLL-AF9 transformed mouse MA9 cells at 6 to 12 uM. Format: functional.
The target of series [6] is Histone-lysine N-methyltransferase ASH1L (Mus musculus) (UniProt Q99MY8). The experiment in a line: Inhibition of ASH1L in MLL-AF9 transformed mouse MA9 cells assessed as downregulation of Meis1 gene expression at 6 to 12 uM by quantitative RT-PCR analysis.
Series [7] in a line: Effect on HOX10 gene expression in Hoxa9/Meis1 transformed mouse HM2 cells at 6 to 12 uM by quantitative RT-PCR analysis. Format: ADME.
The target in series [8] is Histone-lysine N-methyltransferase ASH1L (Mus musculus) (UniProt Q99MY8). Description: Inhibition of ASH1L in MLL-AF9 transformed mouse MA9 cells assessed as downregulation of HOX10 gene expression at 6 to 12 uM by quantitative RT-PCR analysis.
A short description of series [9]: Cytotoxicity in Hoxa9/Meis1 transformed mouse HM2 cells assessed as reduction in cell viability incubated for 12 days with fresh compound replacement for every 4 days by MTT assay. It is filed as cell-based.
A short description of series [10]: Effect on HOX7 gene expression in Hoxa9/Meis1 transformed mouse HM2 cells at 6 to 12 uM by quantitative RT-PCR analysis. Format: ADME.
The nature of series [11]: Induction of cell differentiation in Hoxa9/Meis1 transformed mouse HM2 cells at 6 to 12 uM.
The target in series [12] is Histone-lysine N-methyltransferase ASH1L (Mus musculus) (UniProt Q99MY8). The experiment in a line: Inhibition of ASH1L in MLL-AF9 transformed mouse MA9 cells assessed as downregulation of HOX7 gene expression at 6 to 12 uM by quantitative RT-PCR analysis.
Series [13] can be described thus: Cytotoxicity in MLL-AF9 transformed mouse MA9 cells assessed as reduction in cell viability incubated for 12 days with fresh compound replacement for every 4 days by MTT assay. Format: functional.
A short description of series [14]: Effect on Meis1 gene expression in Hoxa9/Meis1 transformed mouse HM2 cells at 6 to 12 uM by quantitative RT-PCR analysis. Format: ADME.
Series [15] is described as follows: Effect on HOX9 gene expression in Hoxa9/Meis1 transformed mouse HM2 cells at 6 to 12 uM by quantitative RT-PCR analysis. Format: ADME.

On to `NC(=S)c1cccc(-c2cn(CCCC(F)(F)F)c3cc(-c4ccn[nH]4)ccc23)c1`, for which the GI50 (commonly the concentration at which growth is held to half of that of the control) in the series on MV4-11 was 1800 nM; in the series with RS4-11 it was 2800 nM; in the series on MOLM-13, 1400 nM; with SEM cells, 1100 nM. In addition, in series [1], the IC50 (in general, the concentration at which inhibition is half-maximal) was below 20000 nM. Moreover, the inhibition entry in [2], in [3] and in series [4] was “Active” in each case.

On to `NC(=S)c1cccc(-c2cn(CC(CF)CF)c3cc(N)ccc23)c1`, for which the GI50 worked out at 2000 nM in the series with MV4-11, 9000 nM with MOLM-13 and 6000 nM in series [13]. Also, the inhibition entry in series [5], in series [6], in [8] and in series [12] was “Active” throughout. In the series filed under Mus musculus, the result was Active. Besides, the Activity entry in [7], in series [10], in series [11], in [14] and in [15] was “Non-Toxic” in each case. In series [1], this compound returned an IC50 of 4600 nM. The GI50 at 288 h in [9] worked out at 33000 nM.

(Values after ChEMBL document CHEMBL4482324, “Ash1l inhibitors and methods of treatment therewith” (2017).)
